According to patent EP4122461A1 (priority 2021, dated 2023):

Columns and labels:
[1] = system: SARS-2-S-driven cell entry; type: cell-based, SARS-CoV-2
[2] = system: SARS-CoV-2 isolate hCoV-19/Germany/FI1103201/2020; type: cell-based; conditions: PCLS from a single donor; Fig. 1C
[3] = blood and urine; cited from earlier work
[4] = across a 100-fold dose range; cohort of healthy subjects; cited from earlier work
[5] = in vivo; cited from earlier work

Structure (SMILES)	IC50 [1]	inhibitory effects in human PCLS [2]	stability of ester and amide groups [3]	tolerability [4]	SARS-CoV-2 cell entry is inhibited [1]	plasma distribution and elimination [5]
CN(C)C(=O)COC(=O)Cc1ccc(OC(=O)c2ccc(NC(=N)N)cc2)cc1 [Camostat, camostat]	151 nM	comparable				
N=C(N)c1ccc2cc(OC(=O)c3ccc(N=C(N)N)cc3)ccc2c1 [Nafamostat, nafamostat]	11.8 nM					
COC(=O)[C@H](Cc1cccc(C(=N)N)c1)[C@@H](C)NC(=O)c1ccc(-c2cc[n+]([O-])cc2)cc1 [Otamixaban, otamixaban]	18700 nM	comparable	stable	well tolerated	36%	rapid plasma distribution and elimination
